According to patent US20230034248A1, “PLANT STOMATA OPENING PROMOTING AGENT” (OAT Agrio Co., Ltd., priority 2019, published 2023):

Columns and labels:
tomato seedlings = test: Abscisic acid-induced stomatal closure inhibitory activity, second evaluation (foliar spray, ratio of open stomata); format: in vivo, tomato (cultivar: Ponderosa); conditions: for ratio of open stomata as compared to without the addition (student's t-test) / ratio of open stomata as compared to without the addition: 30 μM abscisic acid
Experimental: (§1) On Jun. 31, 2018, a seedling pot (Bee pot Y-55, manufactured by CANELON C.E) was filled with the culture soil, Kumiai Gardening Seedling Culture Soil AISAI No. 1 (manufactured by Katakura & Co-op Agri Corporation), to be level with the upper side of the pot. Two seeds of tomato (cultivar: Ponderosa) were planted in each pot, and the seedling pot was placed in a climate chamber (25° C., dark period/bright period: 11 h/13 h, bright period: 6:00 a.m. to 19:00 p.m.) at the Cultivation Research Center of OAT Agrio Co., Ltd. Water was supplied from the bottom of the pot, and plants were selected at the time of cotyledon development. At 8:30 a.m. on August 21, chemical solutions each prepared by dissolving 100 ppm of Tween (registered trademark) 80, 30 μM of abscisic acid, and 0 (Comparative Example 12), 100, 300, or 500 μM of steviol were sprayed evenly onto above-ground parts of crops grown to a plant age of about 4 in leaf number. At 11:30 a.m. and 16:00 p.m. on the same day, stomata on the underside of the top leaflet of the second leaf of crops were sampled on a cover glass with an instant adhesive (instant bond for general use AronAlpha (registered trademark) manufactured by TOAGOSEI CO., LTD.) thereon to prepare samples for stomatal observation. These samples were observed under a microscope (magnification 1,000×) to count the number of open or closed stomata in 100 or more stomata, and the ratio of open stomata was calculated according to the following equation:
ratio (%) of open stomata=100×(number of open stomata)/(total number of investigated stomata) (Equation)
(§2) The investigations were made in quadruplicate for each treatment condition. A significance test was performed by student's t-test on the ratio of open stomata obtained from the investigation of each individual plant against the ratio of open stomata obtained for the plot without the addition of steviol (0 μm: Comparative Example 12).
as §1, with “Feb. 27,” for “Jun. 31,”, “March 15,” for “August 21,”, “13),” for “12), 100,”, “stevioside” for “steviol”, “3” for “4”, “equation: […]” for “equation:”
as §2, with “stevioside” for “steviol”, “13).” for “12).”
On Mar. […]

[1] = tested on: lower epidermis of Commelina benghalensis L.; test: Stomatal opening promoting activity in a bright place (stomatal aperture of peeled lower epidermis); format: cell-based; conditions: for Stomatal Aperture: bright place 3 hours, mean±standard deviation
Experimental: The lower epidermis of Commelina benghalensis L. was peeled off, immersed in the stomatal aperture measurement solution, and allowed to stand still in a dark place for 2 hours. Then, the lower epidermis of Commelina benghalensis L. was immersed in test solutions prepared by adding steviol to the stomatal aperture measurement solution to give 100 or 300 μM (final concentration) or in the stomatal aperture measurement solution without the addition of steviol (Comparative Example 1), and allowed to stand still in a bright place for 3 hours. The lower epidermis of Commelina benghalensis L. after immersion in the test solutions was photographed with a digital camera (LCD (Liquid Crystal Display), manufactured by KENIS LIMITED) attached to a microscope (Olympus BH2; objective lens SPlan 10 [manufactured by Olympus Corporation] magnification 200×). The stomatal aperture was measured with measurement software (digital microanalyzer, manufactured by Nippon Polaroid Corporation; Polaroid is the registered trademark). The stomatal aperture was measured for 80 or more stomata, for each addition concentration. The stomatal aperture obtained at each addition concentration was compared with the stomatal aperture obtained without the addition of steviol (0 μM, Comparative Example 1), and statistical analysis was performed by student's t-test.
The lower epidermis of Commelina benghalensis L. that had been peeled off was immersed in the stomatal aperture measurement solution, and allowed to stand still in a dark place for 2 hours. Then, the lower epidermis of Commelina benghalensis L. was immersed in test solutions prepared by adding FARM A to the stomatal aperture measurement solution to give a 500- or 250-fold dilution (final concentration) or in the stomatal aperture measurement solution without the addition of FARM A (Comparative Example 2), and allowed to stand still in a bright place for 3 hours. Then, the stomatal aperture was measured as in Example 1.

[2] = 100 μM with 30 μM abscisic acid, sprayed 8:30, Time (11:30)
[3] = 300 μM with 30 μM abscisic acid, sprayed 8:30, Time (11:30)
[4] = 500 μM with 30 μM abscisic acid, sprayed 8:30, Time (11:30)
[5] = every addition concentration (100, 300, 500 μM) and every investigation time
[6] = 300 μM with 30 μM abscisic acid, sprayed 8:30, Time (16:00)
[7] = 500 μM with 30 μM abscisic acid, sprayed 8:30, Time (16:00)

Structure (SMILES) | Ratio (%) of Open Stomata (tomato seedlings; [2]) [%] | Ratio (%) of Open Stomata (tomato seedlings; 100 μM with 30 μM abscisic acid, sprayed 8:30, Time (16:30)) [%] | Ratio (%) of Open Stomata (tomato seedlings; [3]) [%] | Ratio (%) of Open Stomata (tomato seedlings; 300 μM with 30 μM abscisic acid, sprayed 8:30, Time (16:30)) [%] | Ratio (%) of Open Stomata (tomato seedlings; [4]) [%] | Ratio (%) of Open Stomata (tomato seedlings; 500 μM with 30 μM abscisic acid, sprayed 8:30, Time (16:30)) [%] | ratio of open stomata as compared to without the addition (student's t-test) (tomato seedlings; 300 and 500 μM) | ratio of open stomata as compared to without the addition (tomato seedlings; [5]) | Ratio (%) of Open Stomata (tomato seedlings; 100 μM with 30 μM abscisic acid, sprayed 8:30, Time (16:00)) [%] | Ratio (%) of Open Stomata (tomato seedlings; [6]) [%] | Ratio (%) of Open Stomata (tomato seedlings; [7]) [%] | ratio of open stomata as compared to without the addition (student's t-test) (tomato seedlings; [5]) | stomatal aperture as compared to without the addition (student's t-test) ([1]; 300 μM, bright place) | stomatal aperture as compared to without the addition ([1]; 100 or 300 μM, bright place) | Stomatal Aperture ([1]; addition concentration 100 μM) [μm] | Stomatal Aperture ([1]; addition concentration 300 μM) [μm] | ratio of open stomata as compared to without the addition (student's t-test) (tomato seedlings; addition concentrations and investigation times other than 500 μM at 11:30 a.m.) | ratio of open stomata as compared to without the addition (tomato seedlings; every addition concentration (300, 500 μM) and every investigation time)
C=C1C[C@@]23CC[C@H]4[C@@](C)(CCC[C@@]4(C)C(=O)O[C@@H]4O[C@H](CO)[C@@H](O)[C@H](O)[C@H]4O)[C@@H]2CC[C@]1(O[C@@H]1O[C@H](CO)[C@@H](O)[C@H](O[C@@H]2O[C@H](CO)[C@@H](O)[C@H](O)[C@H]2O)[C@H]1O[C@@H]1O[C@H](CO)[C@@H](O)[C@H](O)[C@H]1O)C3 [rebaudioside A] | 56.6 ± 5.8 | 50.0 ± 3.2 | 58.6 ± 4.6 | 51.2 ± 2.1 | 56.5 ± 3.8 | 54.0 ± 6.6 | statistically significant improvement in the ratio of open stomata | an improvement in the ratio of open stomata | – | – | – | – | – | – | – | – | – | –
C=C1C[C@@]23CC[C@H]4[C@@](C)(CCC[C@@]4(C)C(=O)O)[C@@H]2CC[C@]1(O)C3 [steviol] | 69.0 ± 5.5 | – | 62.7 ± 2.5 | – | 60.1 ± 7.5 | – | – | – | 69.3 ± 3.5 | 61.9 ± 4.6 | 62.5 ± 6.8 | statistically significant improvement in the ratio of open stomata | statistically significant increase in the stomatal aperture | an increase in the stomatal aperture | 15.16 ± 0.33 | 16.95 ± 0.37 | – | –
C=C1C[C@@]23CC[C@H]4[C@@](C)(CCC[C@@]4(C)C(=O)O[C@@H]4O[C@H](CO)[C@@H](O)[C@H](O)[C@H]4O)[C@@H]2CC[C@]1(O[C@@H]1O[C@H](CO)[C@@H](O)[C@H](O)[C@H]1O[C@@H]1O[C@H](CO)[C@@H](O)[C@H](O)[C@H]1O)C3 [stevioside] | – | – | 65.1 ± 6.4 | – | 45.7 ± 2.7 | – | – | – | – | 58.0 ± 4.2 | 54.6 ± 3.8 | – | – | – | – | – | statistically significant improvement in the ratio of open stomata | an improvement in the ratio of open stomata
